# How the values were obtained:
# Assay in all cases: biochemical
# Design in all cases: KINOMEscan active-site competition binding panel (468 kinase assays), per cent of control at 1000 nM
# Details in all cases: KINOMEscan per cent of control (binding competition); read-out: Percent Control
# [1] = biological target: GSK3A (Homo sapiens, UniProt P49840)
# Excerpt: (§1) Figure S7 / Percent Control
# [2] = biological target: MAP3K2 (Homo sapiens, UniProt Q9Y2U5)
# Excerpt: as §1
# [3] = biological target: T1, MRCKB (Homo sapiens, UniProt Q9Y5S2)
# T1 construct: gene CDC42BPB
# Excerpt: as §1
# [4] = biological target: FLT3(ITD,D835V) (Homo sapiens, UniProt P36888, D835V/ITD)
# Excerpt: as §1
# [5] = biological target: PIP5K1A (Homo sapiens, UniProt Q99755)
# Excerpt: as §1
# [6] = biological target: SRC (Homo sapiens, UniProt P12931)
# Chain of SRC (P12931 whole entry): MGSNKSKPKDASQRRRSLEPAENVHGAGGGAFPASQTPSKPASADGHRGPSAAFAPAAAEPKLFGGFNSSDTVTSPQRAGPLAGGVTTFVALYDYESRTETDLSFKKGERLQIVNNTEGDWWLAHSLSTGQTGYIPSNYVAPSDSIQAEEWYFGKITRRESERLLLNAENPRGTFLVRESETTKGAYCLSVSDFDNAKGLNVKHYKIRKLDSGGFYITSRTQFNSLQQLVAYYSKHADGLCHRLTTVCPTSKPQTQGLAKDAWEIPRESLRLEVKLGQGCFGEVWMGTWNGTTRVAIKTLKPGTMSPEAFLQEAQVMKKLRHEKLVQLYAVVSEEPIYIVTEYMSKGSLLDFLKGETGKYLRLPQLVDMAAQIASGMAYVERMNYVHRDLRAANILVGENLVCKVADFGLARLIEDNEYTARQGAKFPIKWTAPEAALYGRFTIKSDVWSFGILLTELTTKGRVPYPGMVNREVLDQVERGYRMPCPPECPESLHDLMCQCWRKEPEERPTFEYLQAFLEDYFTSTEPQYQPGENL
# Excerpt: as §1
# [7] = biological target: PAK3 (Homo sapiens, UniProt O75914)
# Chain of PAK3 (O75914 whole entry): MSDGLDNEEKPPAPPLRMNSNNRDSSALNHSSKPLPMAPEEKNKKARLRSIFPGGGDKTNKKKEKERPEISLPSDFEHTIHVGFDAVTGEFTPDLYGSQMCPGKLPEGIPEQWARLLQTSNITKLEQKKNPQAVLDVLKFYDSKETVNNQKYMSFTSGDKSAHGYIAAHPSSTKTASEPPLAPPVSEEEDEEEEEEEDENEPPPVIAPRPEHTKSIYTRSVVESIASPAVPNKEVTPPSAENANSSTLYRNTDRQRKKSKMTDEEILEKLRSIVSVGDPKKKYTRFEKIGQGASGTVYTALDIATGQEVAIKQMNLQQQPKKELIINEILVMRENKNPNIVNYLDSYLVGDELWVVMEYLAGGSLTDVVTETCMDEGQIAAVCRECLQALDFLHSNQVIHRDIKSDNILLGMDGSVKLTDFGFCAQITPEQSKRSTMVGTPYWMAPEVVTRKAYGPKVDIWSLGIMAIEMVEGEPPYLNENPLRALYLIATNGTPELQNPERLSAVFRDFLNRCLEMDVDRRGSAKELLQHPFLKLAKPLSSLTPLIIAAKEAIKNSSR
# Excerpt: as §1
# [8] = biological target: MAP4K4 (Homo sapiens, UniProt O95819)
# Excerpt: as §1
# [9] = biological target: T2, MKK7 (Homo sapiens, UniProt O14733)
# T2 construct: gene MAP2K7
# Excerpt: as §1
# [10] = biological target: ANKK1 (Homo sapiens, UniProt Q8NFD2)
# Excerpt: as §1
# [11] = biological target: MAPKAPK2 (Homo sapiens, UniProt P49137)
# Excerpt: as §1
# [12] = biological target: EPHA6 (Homo sapiens, UniProt Q9UF33)
# Excerpt: as §1
# [13] = biological target: HASPIN (Homo sapiens, UniProt Q8TF76)
# Chain of HASPIN (Q8TF76 whole entry): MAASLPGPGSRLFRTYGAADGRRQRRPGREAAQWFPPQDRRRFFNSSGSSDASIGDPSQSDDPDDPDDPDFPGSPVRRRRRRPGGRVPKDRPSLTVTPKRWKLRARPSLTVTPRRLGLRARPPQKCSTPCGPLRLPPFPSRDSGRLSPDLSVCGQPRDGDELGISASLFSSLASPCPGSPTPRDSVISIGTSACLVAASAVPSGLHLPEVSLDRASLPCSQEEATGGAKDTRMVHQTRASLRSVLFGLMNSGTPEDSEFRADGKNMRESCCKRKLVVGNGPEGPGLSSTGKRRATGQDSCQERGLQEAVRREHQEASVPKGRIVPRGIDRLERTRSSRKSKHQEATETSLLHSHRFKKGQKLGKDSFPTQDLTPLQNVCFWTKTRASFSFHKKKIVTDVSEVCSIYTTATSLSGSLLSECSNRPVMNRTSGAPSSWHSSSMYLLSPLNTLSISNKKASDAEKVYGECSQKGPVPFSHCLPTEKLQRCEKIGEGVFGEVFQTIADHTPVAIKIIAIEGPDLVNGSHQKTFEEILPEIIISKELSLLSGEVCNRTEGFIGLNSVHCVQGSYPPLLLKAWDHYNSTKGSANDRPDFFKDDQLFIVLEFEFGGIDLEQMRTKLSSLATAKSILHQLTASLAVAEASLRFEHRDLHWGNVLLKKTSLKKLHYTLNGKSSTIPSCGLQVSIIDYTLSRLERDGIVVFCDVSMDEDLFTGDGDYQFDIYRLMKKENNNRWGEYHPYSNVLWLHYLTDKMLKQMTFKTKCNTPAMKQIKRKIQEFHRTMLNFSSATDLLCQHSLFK
# Excerpt: as §1
# [14] = biological target: MST1R (Homo sapiens, UniProt Q04912)
# Chain of MST1R (Q04912 whole entry): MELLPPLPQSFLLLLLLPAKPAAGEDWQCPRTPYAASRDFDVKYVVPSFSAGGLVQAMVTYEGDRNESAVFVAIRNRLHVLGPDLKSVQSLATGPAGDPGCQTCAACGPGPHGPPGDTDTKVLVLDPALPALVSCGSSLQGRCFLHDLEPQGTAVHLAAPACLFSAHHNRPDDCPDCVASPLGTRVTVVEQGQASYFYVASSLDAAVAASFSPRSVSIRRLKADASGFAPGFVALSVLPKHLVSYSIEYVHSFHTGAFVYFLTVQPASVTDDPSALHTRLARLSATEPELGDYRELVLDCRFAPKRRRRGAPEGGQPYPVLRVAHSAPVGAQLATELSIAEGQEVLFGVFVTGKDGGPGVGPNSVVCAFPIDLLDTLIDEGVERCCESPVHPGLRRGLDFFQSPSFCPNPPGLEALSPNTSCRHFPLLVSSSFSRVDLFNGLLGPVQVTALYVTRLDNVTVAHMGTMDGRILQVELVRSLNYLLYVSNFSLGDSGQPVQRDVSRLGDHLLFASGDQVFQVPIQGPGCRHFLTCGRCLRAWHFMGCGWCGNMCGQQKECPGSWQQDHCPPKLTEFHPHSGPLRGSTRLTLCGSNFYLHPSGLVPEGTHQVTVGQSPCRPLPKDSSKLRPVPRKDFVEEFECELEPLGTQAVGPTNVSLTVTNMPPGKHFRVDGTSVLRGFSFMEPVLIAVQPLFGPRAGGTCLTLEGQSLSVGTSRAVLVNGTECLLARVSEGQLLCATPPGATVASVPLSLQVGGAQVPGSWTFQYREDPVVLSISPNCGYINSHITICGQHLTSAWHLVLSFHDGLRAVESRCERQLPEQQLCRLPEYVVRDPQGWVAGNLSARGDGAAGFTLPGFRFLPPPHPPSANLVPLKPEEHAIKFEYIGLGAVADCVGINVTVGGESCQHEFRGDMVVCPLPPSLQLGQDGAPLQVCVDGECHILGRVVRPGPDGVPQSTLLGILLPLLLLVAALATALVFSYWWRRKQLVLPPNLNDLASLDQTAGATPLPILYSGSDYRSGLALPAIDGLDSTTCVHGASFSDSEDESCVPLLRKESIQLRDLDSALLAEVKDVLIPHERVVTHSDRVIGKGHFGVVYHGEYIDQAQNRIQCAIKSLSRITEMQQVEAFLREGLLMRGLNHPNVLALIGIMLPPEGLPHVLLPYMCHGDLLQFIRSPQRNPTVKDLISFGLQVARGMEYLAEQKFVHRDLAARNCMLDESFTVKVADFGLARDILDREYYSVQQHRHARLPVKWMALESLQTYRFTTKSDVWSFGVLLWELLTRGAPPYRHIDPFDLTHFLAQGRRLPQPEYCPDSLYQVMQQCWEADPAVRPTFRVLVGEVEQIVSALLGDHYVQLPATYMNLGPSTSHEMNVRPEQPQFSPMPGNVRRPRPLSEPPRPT
# Excerpt: as §1
# [15] = biological target: SGK2 (Homo sapiens, UniProt Q9HBY8)
# Chain of SGK2 (Q9HBY8 whole entry): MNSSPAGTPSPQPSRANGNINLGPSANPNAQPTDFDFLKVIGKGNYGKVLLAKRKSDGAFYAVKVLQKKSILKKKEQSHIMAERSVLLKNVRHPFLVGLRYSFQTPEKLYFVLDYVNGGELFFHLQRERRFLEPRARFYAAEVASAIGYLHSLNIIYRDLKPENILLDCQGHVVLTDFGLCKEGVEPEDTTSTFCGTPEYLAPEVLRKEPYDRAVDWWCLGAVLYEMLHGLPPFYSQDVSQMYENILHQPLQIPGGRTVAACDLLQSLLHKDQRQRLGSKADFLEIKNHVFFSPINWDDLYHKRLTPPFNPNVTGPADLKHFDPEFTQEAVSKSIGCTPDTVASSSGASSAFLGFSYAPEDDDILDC
# Excerpt: as §1
# [16] = biological target: T3, ASK1 (Homo sapiens, UniProt Q99683)
# T3 construct: gene MAP3K5
# Excerpt: as §1
# [17] = biological target: PIK3CD (Homo sapiens, UniProt O00329)
# Chain of PIK3CD (O00329 whole entry): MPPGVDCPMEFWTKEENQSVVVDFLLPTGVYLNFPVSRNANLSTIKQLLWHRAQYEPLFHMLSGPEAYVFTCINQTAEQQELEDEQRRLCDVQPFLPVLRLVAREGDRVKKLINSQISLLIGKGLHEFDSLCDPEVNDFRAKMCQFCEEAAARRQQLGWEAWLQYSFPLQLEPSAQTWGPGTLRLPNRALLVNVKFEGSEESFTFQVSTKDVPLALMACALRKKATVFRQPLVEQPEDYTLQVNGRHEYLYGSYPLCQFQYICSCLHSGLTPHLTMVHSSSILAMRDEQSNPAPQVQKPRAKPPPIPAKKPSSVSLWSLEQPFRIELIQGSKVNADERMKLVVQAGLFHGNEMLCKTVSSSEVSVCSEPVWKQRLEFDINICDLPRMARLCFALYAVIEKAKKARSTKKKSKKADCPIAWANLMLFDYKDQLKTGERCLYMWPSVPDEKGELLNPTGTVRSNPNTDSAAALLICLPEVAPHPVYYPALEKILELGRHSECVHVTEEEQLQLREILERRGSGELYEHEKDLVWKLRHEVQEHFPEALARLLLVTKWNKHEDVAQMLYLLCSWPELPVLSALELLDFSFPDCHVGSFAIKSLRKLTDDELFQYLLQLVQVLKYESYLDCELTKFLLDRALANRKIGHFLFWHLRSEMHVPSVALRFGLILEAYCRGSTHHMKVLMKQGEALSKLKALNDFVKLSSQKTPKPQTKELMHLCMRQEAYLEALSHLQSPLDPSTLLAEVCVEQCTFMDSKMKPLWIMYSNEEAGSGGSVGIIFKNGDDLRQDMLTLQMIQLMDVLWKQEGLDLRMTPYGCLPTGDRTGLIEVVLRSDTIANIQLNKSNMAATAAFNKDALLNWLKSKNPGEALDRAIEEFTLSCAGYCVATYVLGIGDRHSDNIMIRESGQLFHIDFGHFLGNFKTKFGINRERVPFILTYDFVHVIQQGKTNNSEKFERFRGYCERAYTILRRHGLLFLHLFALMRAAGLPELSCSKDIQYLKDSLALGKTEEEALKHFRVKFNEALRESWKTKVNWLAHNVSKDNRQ
# Excerpt: as §1
# [18] = biological target: T4, p38-gamma (Homo sapiens, UniProt P53778)
# T4 construct: gene MAPK12
# Excerpt: as §1
# [19] = biological target: GAK (Homo sapiens, UniProt O14976)
# Excerpt: as §1
# [20] = biological target: TNK1 (Homo sapiens, UniProt Q13470)
# Excerpt: as §1
# [21] = biological target: TSSK3 (Homo sapiens, UniProt Q96PN8)
# Chain of TSSK3 (Q96PN8 whole entry): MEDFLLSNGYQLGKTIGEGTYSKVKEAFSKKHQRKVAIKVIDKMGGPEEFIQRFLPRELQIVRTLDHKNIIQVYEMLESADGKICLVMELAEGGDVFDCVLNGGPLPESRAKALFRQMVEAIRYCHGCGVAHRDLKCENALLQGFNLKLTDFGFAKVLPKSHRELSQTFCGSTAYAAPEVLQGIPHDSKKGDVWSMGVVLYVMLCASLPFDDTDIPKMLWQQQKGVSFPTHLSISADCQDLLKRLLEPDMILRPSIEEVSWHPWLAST
# Excerpt: as §1
# [22] = biological target: ACVR2A (Homo sapiens, UniProt P27037)
# Excerpt: as §1
# [23] = biological target: KIT-autoinhibited (Homo sapiens, UniProt P10721)
# Excerpt: as §1
# [24] = biological target: LYN (Homo sapiens, UniProt P07948)
# Excerpt: as §1
# [25] = biological target: FLT3(D835H) (Homo sapiens, UniProt P36888, D835H)
# Excerpt: as §1
structure (smiles),measurement,setting,value
Cn1c(=O)[nH]c2ccc(-c3cccc(C(=O)NC4CCn5ccnc5C4)c3)cc21 (stereo not shown) [Z36-MP5],remaining binding at 1 µM,[1],95%
same,remaining binding at 1 µM,[2],65%
same,remaining binding at 1 µM,[3],92%
same,remaining binding at 1 µM,[4],56%
same,remaining binding at 1 µM,[5],57%
same,remaining binding at 1 µM,[6],97%
same,remaining binding at 1 µM,[7],71%
same,remaining binding at 1 µM,[8],67%
same,remaining binding at 1 µM,[9],72%
same,remaining binding at 1 µM,[10],60%
same,remaining binding at 1 µM,[11],55%
same,remaining binding at 1 µM,[12],69%
same,remaining binding at 1 µM,[13],71%
same,remaining binding at 1 µM,[14],64%
same,remaining binding at 1 µM,[15],64%
same,remaining binding at 1 µM,[16],75%
same,remaining binding at 1 µM,[17],74%
same,remaining binding at 1 µM,[18],78%
same,remaining binding at 1 µM,[19],71%
same,remaining binding at 1 µM,[20],77%
same,remaining binding at 1 µM,[21],42%
same,remaining binding at 1 µM,[22],57%
same,remaining binding at 1 µM,[23],57%
same,remaining binding at 1 µM,[24],77%
same,remaining binding at 1 µM,[25],81%

# — article PMC10924921, “Mi-2β promotes immune evasion in melanoma by activating EZH2 methylation” (Nature Communications, 2024)
